Holding throughout (type): cell-based, human
Assay [1] deals with gastric cancer cells NCI-N87. In words: HER2 internalization (endocytosis) assay, pHrodo Green staining, flow cytometry. Particulars: 10 μg/mL. Here is the method: (§1) A HER2 internalization assay was performed using pHrodoiFL Green STP ester amine reactive dye (P35369, Invitrogen). […] After a short wash with a wash buffer to remove unbound antibodies, one group of cells was placed on ice for freezing to stop internalization, and the remaining cells were placed in a 37° C. incubator for further incubation. After the co-incubation with the antibody, the cells were fixed with a fixation buffer (420801, Biolegend) for 30 min. Finally, all stained cells were washed with a staining buffer and analyzed on the CytoFLEX LX flow cytometer (Beckman Coulter, USA).

Assay [2] concerns gastric cancer cells SNU216. The assay is described as above. Particulars: 10 μg/mL. Here is the method:
as §1

The next assay concerns NCI-N87 cells. Briefly: Apoptosis assay (Caspase-Glo 3/7). Particulars: 24 h treatment. Here is the method:
The apoptosis was assessed by measuring the activity of caspases 3/7 in gastric cancer NCI-N87 cells using the Caspase-Glo®3/7 Assay system. A xenograft human gastric cancer NCI-N87 model and a human gastric cancer PDX model were treated with the antibodies at given doses. All data are presented as mean±SEM. The p values were calculated using Student's t test. ** denotes p<0.01, and * denotes p<0.05.
The apoptosis was assessed by measuring the activity of caspases 3/7 in NCI-N87 cells using the Caspase-Glo®3/7 Assay (G8093, Promega) system. The cells were seeded in a 96-well plate (CLS3799, Corning) at about 1.5×10^4 cells/well and incubated overnight. The original medium was replaced with a drug-containing culture medium of 100 μL, and the cells were treated for 24 h. After an incubation at room temperature for 30 min, 100 μL of Caspase-Glo 3/7 reagent was added. The plate was incubated in the dark for 30 min and detected using Spark (Tecan, Switzerland) after gentle shaking.

With “pertuzumab: antibody comprising heavy chain SEQ ID NO: 13 and light chain SEQ ID NO: 14 [reference compound]”, the “HER2 internalization (endocytosis)” value in assay [1] and in assay [2] was “weak endocytosis” throughout. The “apoptosis (caspases 3/7 activity)” value in the assay on NCI-N87 cells is given as “did not significantly induce the apoptosis of NCI-N87 cells”.
